# According to patent US9877927B2, “Inhibitor of odor caused by Furaneol” (Kao Corporation, priority 2013, dated 2018):
# What was measured:
# olfactory receptor OR5K1 [1] = biological target: T1, olfactory receptor OR5K1 (Homo sapiens, UniProt Q8NHB7); assay: Antagonistic activity against the response of OR5K1 to Furaneol (luciferase assay); assay type: cell-based; settings: Furaneol 3 mM, test substance 100 μM, HEK293 cells expressing OR5K1; vs Furaneol alone; read-out: Rate of inhibition of the response of OR5K1 to Furaneol
# T1 construct: expressed in transfected cells; host or cells: HEK293
# T1 sequence (Q8NHB7 1-308): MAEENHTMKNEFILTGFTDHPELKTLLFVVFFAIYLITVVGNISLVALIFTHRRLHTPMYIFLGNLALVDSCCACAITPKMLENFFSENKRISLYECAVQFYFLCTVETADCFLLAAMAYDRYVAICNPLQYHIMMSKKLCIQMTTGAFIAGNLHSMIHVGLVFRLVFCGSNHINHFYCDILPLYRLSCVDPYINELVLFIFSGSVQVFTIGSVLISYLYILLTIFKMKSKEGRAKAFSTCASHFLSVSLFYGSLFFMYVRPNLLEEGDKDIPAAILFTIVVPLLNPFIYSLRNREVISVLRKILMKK
# Procedure: Furaneol (3 mM) and each test substance (100 μM) were added to HEK293 cells allowed to express the olfactory receptor OR5K1 by the same procedures as in Example 2. The response of the olfactory receptor was measured to evaluate change in receptor response caused by the addition of the test substance.
# The rate of inhibition of the receptor response by the test substance was calculated as follows: firefly luciferase-derived luminescence intensity (Y) in the olfactory receptor OR5K1-expressing cells without Furaneol stimulation was subtracted from luminescence intensity (X) induced by stimulation with Furaneol alone to determine receptor activity (X−Y) based on the stimulation with Furaneol alone. Likewise, the luminescence intensity (Y) in the cells without Furaneol stimulation was subtracted from luminescence intensity (Z) induced by stimulation with the mixture of Furaneol and the test substance to determine receptor activity (Z−Y) in the presence of the test substance. The rate of reduction in the receptor activity (Z−Y) in the presence of the test substance with respect to the receptor activity (X−Y) based on the stimulation with Furaneol alone was calculated according to an expression shown below to determine the rate of inhibition of the receptor response by the test substance. In this assay, a plurality of independent duplicate experiments were performed. An average of the experiments in each run was obtained. Rate of inhibition (%)={1−(Z−Y)/(X−Y)}×100
# olfactory receptor OR5K1 [2] = biological target: T1, olfactory receptor OR5K1; assay: Luciferase reporter gene assay, response of olfactory receptor to Furaneol; assay type: cell-based
# Text: On the basis of sequence information registered in GenBank, each human olfactory receptor gene was cloned by PCR with Human Genomic DNA Female (G1521: Promega Corp.) as a template. Each gene thus amplified by PCR was inserted into a pENTR vector (Invitrogen Corp.) according to the manual. A NotI-AscI site present on the pENTR vector was recombined into a NotI-AscI site prepared downstream of a Flag-Rho tag sequence on a pME18S vector.
# A gene (GenBank GI: 50234917) encoding a human receptor transporting protein, RTP1S was inserted into the EcoRI-XhoI site of the pME18S vector.
# HEK293 cells expressing each of 400 types of human olfactory receptors were prepared. […]
# The olfactory receptors expressed on the HEK293 cells are conjugated with intracellular Gas to activate adenylate cyclase, thereby increasing intracellular cAMP levels. In this study, their responses to Furaneol were measured using luciferase reporter gene assay which involved monitoring increase in intracellular cAMP level as luminescence intensity derived from a firefly luciferase gene (fluc2P-CRE-hygro). […]
# A medium was removed from the cultures prepared in the preceding paragraph 3). […] The luciferase activity was measured using Dual-Glo™ luciferase assay system (Promega Corp.) according to the instruction manual of the product. […]
"Concentration dependence of OR5K1 response to Furaneol (olfactory receptor OR5K1 [2]; Furaneol 0, 3, 10, 30, 100, 300, 1000, 3000 μM, OR5K1 with human RTP1S in HEK293 cells)",SMILES,inhibition at 100 µM (olfactory receptor OR5K1 [1]) [%],"Response of olfactory receptors to Furaneol (fold increase in luminescence) (olfactory receptor OR5K1 [2]; Furaneol 3 mM, 400 types of human olfactory receptors in HEK293 cells)"
,CC(=O)O[C@]1(C)CC[C@@]23C[C@@H]1C(C)(C)[C@@H]2CC[C@H]3C [Cedryl acetate],≥ 50,
,CC(C)=CCCC(C)=CC=O [Citral],≥ 75,
concentration-dependent response,"CC1=C(O)C(=O)C(C)O1 (centres unmarked) [Furaneol, 2,5-dimethyl-4-hydroxy-3(2H)-furanone]",,only the olfactory receptor OR5K1 exhibited a response
,"CC(=O)c1cc2c(cc1C)C(C)(C)C(C)CC2(C)C [Tonalid(R), 1-(5,6,7,8-tetrahydro-3,5,5,6,8,8-hexamethyl-2-naphthalenyl)-ethanone]",≥ 75,
